Source: patent publication US20230312564A1, “AROMATIC RING-LACTAM COMPOUND, PREPARATION METHOD THEREFOR AND USE THEREOF” (SHANGHAI RINGENE BIOPHARMA CO., LTD., priority 2020, published 2023)
Where two headings read alike, the source gives them in different places.

Experiments:
ERK1/2 kinase = system: T1, ERK1/2 kinase; test: ERK1/2 kinase (Carna) inhibitory activity, Caliper mobility shift; type: biochemical; conditions: for IC50: read-out: ERK½ IC50
T1 construct: fused on or other part: Carna's ERK products carry a GST tag by vendor knowledge
Description: (1) Preparation of 1×Kinase buffer; (2) preparation of compound concentration gradient: the initial test concentration of the tested compound was 10 μM, which was 3-fold diluted to 10 concentrations, and a duplicate test was conducted, and then the tested compound was diluted in a 96 well plate to a 100-fold final concentration of 10 different concentrations of solution. […] Log (inhibitor) vs. response—Variable slope of the analysis software GraphPad Prism 5 was used to fit the dose-effect curve to obtain the IC50 value of each compound on the enzyme activity.
2. […] (A<10 nM, 10 nM≤B<200 nM, C≥200 nM)

Colo-205 cells = test: Colo-205 tumor cell proliferation, CCK-8, 72 hours; type: cell-based; conditions: for IC50: 72 hours, CCK-8, read-out: Colo-205 IC50; for cell proliferation inhibitory activity (in words): Colo-205
Description: 1. Test method: Colo-205 cells (ATCC) in logarithmic growth phase were inoculated into a 96-well culture plate at an appropriate density with 90 μL per well. After overnight culture, different concentrations of the compound were added and acted for 72 hours, and a solvent control group (negative control) was set. After the compound was acted on cells for 72 hours, the effect of the compound on cell proliferation was detected by the cell counting kit CCK-8 (Dojindo), and 10 μL of CCK-8 reagent was added to each well. After the plate was placed in a 37° C. incubator for 2 to 4 hours, a full-wavelength microplate reader SpectraMax 190 was adopted for obtaining the readings with a measured wavelength of 450 nm. […] The IC50 value was obtained by four-parameter regression with the software attached to the microplate reader.

[1] = In-vivo pharmacokinetic parameters in mice; parameters: species or system Balb-c mice; conditions: for F: PO 5 mg/kg vs IV 1 mg/kg; for AUC(0-inf) / AUC(0-t) / MRT inf / clearance / half-life / Vd / Cmax / Tmax: male, Balb-c, mouse, plasma; for Vd: read-out: Vss
Description: Six male SPF grade SD rats or Balb-c mice (Shanghai Sipple-Bikai Laboratory Animal) were divided into two groups, and the tested compounds were prepared into appropriate solutions or suspensions; one group was administered intravenously (with a dose of 1 mg/kg), and the other group was administered orally (with a dose of 5 mg/kg). Blood samples were collected by jugular vein puncture, and each sample was collected with a volume of about 0.2 mL/time point, and heparin sodium was used for anticoagulation. The time points of blood collection were listed below: 5, 15 and 30 min […], 1, 2, 4, 6, 8 and 24 h after administration; the collected blood samples were placed on ice and centrifuged to separate plasma (centrifugation conditions: 8,000 rpm, 6 min, 2 to 8° C.), and the collected plasma was stored at −80° C. before analysis. Plasma samples were analyzed by LC-MS/MS.
The pharmacokinetic parameters such as AUC0-t, AUC0-∞, MRT0-∞, Cmax, Tmax, T1/2 and Vd of the tested compounds and their mean values and standard deviations were calculated by the pharmacokinetic calculation software WinNonlin5.2 non-compartmental model according to the plasma concentration data. In addition, the bioavailability (F) was calculated by the following formula.
For samples with concentrations below the lower limit of quantitation, while pharmacokinetic parameter calculations were performed, samples sampled before Cmax was reached should be calculated as a zero value and samples sampled after Cmax was reached should be calculated as below limit of quantitation (BLQ).

[2] = Homo sapiens, COLO 205, numeric values
[3] = Homo sapiens, COLO 205, class symbols

In the case of `C[C@H](C(=O)N[C@H](CO)c1cccc(F)c1)N1Cc2ccc(-c3nc(NC4CCOCC4)ncc3Cl)nc2C1=O` [Embodiment 20], the “enzyme inhibitory activity (in words)” value (ERK1/2 kinase) is reported as “extremely strong enzyme inhibitory activity”, the IC50 (ERK1/2 kinase; numeric values) is reported as 1.8 nM and the IC50 (Colo-205 cells; [2]) is reported as 246 nM.

For `Cc1cccc([C@@H](CO)NC(=O)[C@@H](C)N2Cc3ccc(-c4ccnc(NC5CCOCC5)c4)c(F)c3C2=O)c1` [Embodiment 22], the “enzyme inhibitory activity (in words)” value (ERK1/2 kinase) was “extremely strong enzyme inhibitory activity”, the IC50 (ERK1/2 kinase; numeric values) was 1.3 nM and the “cell proliferation inhibitory activity (in words)” value (Colo-205 cells) was “strong cell proliferation inhibitory activity”. The IC50 (Colo-205 cells; [2]) was 67.7 nM.

For `Cc1cccc([C@@H](CO)NC(=O)[C@@H](C)N2Cc3ccc(-c4nc(NC5CCOCC5)ncc4Cl)c(F)c3C2=O)c1` [Embodiment 25, (R)-2-(6-(5-Chloro-2-((tetrahydro-2H-pyran-4-yl)amino)pyrimidin-4-yl)-7-fluoro-1-oxoisoindolin-2-yl)-N—((S)-2-hydroxy-1-(m-tolyl)ethyl)propanamide], the F [1] was 43%, the AUC(0-inf) ([1]; IV, 1 mg/kg) was 0.368 µM·h and the AUC(0-t) ([1]; IV, 1 mg/kg) was 0.364 µM·h. The MRT inf ([1]; IV, 1 mg/kg) was 18 min, the clearance ([1]; IV, 1 mg/kg) was 80 mL/min/kg and the half-life ([1]; IV, 1 mg/kg) was 42 min. For the same compound, the Vd ([1]; IV, 1 mg/kg) was 1.6 L/kg, the AUC(0-inf) ([1]; PO, 5 mg/kg) was 0.796 µM·h and the AUC(0-t) ([1]; PO, 5 mg/kg) was 0.776 µM·h. The Cmax ([1]; PO, 5 mg/kg) was 955 nM, the Tmax ([1]; PO, 5 mg/kg) was 18 min and the half-life ([1]; PO, 5 mg/kg) was 102 min.

With `Cc1cccc([C@@H](CO)NC(=O)[C@@H](C)N2Cc3ccc(-c4ccnc(Nc5ccnn5C)n4)c(F)c3C2=O)c1` [Embodiment 27] the IC50 (ERK1/2 kinase; numeric values) was 1.3 nM and the IC50 (Colo-205 cells; class symbols) was less than 100 nM.

`Cc1cccc([C@@H](CO)NC(=O)[C@@H](C)N2Cc3ccc(-c4nc(NC5CCOCC5)ncc4F)nc3C2=O)c1` [Embodiment 28] gave an IC50 (ERK1/2 kinase; numeric values) of 3.7 nM and an IC50 (Colo-205 cells; class symbols) of 100 to 1000 nM.

With `Cc1cccc([C@@H](CO)NC(=O)[C@@H](C)N2Cc3ccc(-c4ccnc(NC(C)C)n4)c(F)c3C2=O)c1` [Embodiment 29] the IC50 (ERK1/2 kinase; numeric values) was 3.6 nM and the IC50 (Colo-205 cells; class symbols) was 100 to 1000 nM.

In the case of `Cc1cccc([C@@H](CO)NC(=O)[C@@H](C)N2Cc3ccc(-c4ccnc(NC5CCOCC5)n4)nc3C2=O)c1` [Embodiment 30], the IC50 (ERK1/2 kinase; numeric values) is reported as 6.9 nM and the IC50 (Colo-205 cells; class symbols) is reported as 100 to 1000 nM.

With `Cc1cccc([C@@H](CO)NC(=O)[C@@H](C)N2Cc3ccc(-c4nc(Nc5ccnn5C)ncc4Cl)c(F)c3C2=O)c1` [Embodiment 32, (R)-2-(6-(5-Chloro-2-((1-methyl-1H-pyrazol-5-yl)amino)pyrimidin-4-yl)-7-fluoro-1-oxoisoindolin-2-yl)-N—((S)-2-hydroxy-1-(m-tolyl)ethyl)propanamide] the F [1] was 26%, the AUC(0-inf) ([1]; IV, 1 mg/kg) was 0.272 µM·h and the AUC(0-t) ([1]; IV, 1 mg/kg) was 0.268 µM·h. It also gave an MRT inf ([1]; IV, 1 mg/kg) of 24 min, a clearance ([1]; IV, 1 mg/kg) of 110 mL/min/kg and a half-life ([1]; IV, 1 mg/kg) of 60 min. It also gave a Vd ([1]; IV, 1 mg/kg) of 2.7 L/kg, an AUC(0-inf) ([1]; PO, 5 mg/kg) of 0.347 µM·h and an AUC(0-t) ([1]; PO, 5 mg/kg) of 0.338 µM·h. The Cmax ([1]; PO, 5 mg/kg) was 357 nM, the Tmax ([1]; PO, 5 mg/kg) was 30 min and the half-life ([1]; PO, 5 mg/kg) was 90 min.

Compound `Cc1cccc([C@@H](CO)NC(=O)[C@@H](C)N2Cc3ccc(-c4nc(Nc5ccnn5C)ncc4Cl)c(F)c3C2=O)c1` [Embodiment 32] has an IC50 (ERK1/2 kinase; numeric values) of 1.4 nM and an IC50 (Colo-205 cells; numeric values) of 98.6 nM.

`COc1cc(F)cc([C@@H](CO)NC(=O)[C@@H](C)N2Cc3ccc(-c4nc(NC5CCOCC5)ncc4Cl)c(F)c3C2=O)c1` [Embodiment 33, (R)-2-(6-(5-Chloro-2-((tetrahydro-2H-pyran-4-yl)amino)pyrimidin-4-yl)-7-fluoro-1-oxoisoindolin-2-yl)-N—((S)-1-(3-fluoro-5-methoxyphenyl)-2-hydroxyethyl)propanamide] showed an F [1] of 25%, an AUC(0-inf) ([1]; IV, 1 mg/kg) of 0.276 µM·h and an AUC(0-t) ([1]; IV, 1 mg/kg) of 0.274 µM·h. For the same compound, the MRT inf ([1]; IV, 1 mg/kg) was 12 min, the clearance ([1]; IV, 1 mg/kg) was 102 mL/min/kg and the half-life ([1]; IV, 1 mg/kg) was 24 min. For the same compound, the Vd ([1]; IV, 1 mg/kg) was 1.3 L/kg, the AUC(0-inf) ([1]; PO, 5 mg/kg) was 0.338 µM·h and the AUC(0-t) ([1]; PO, 5 mg/kg) was 0.322 µM·h. The Cmax ([1]; PO, 5 mg/kg) was 441 nM, the Tmax ([1]; PO, 5 mg/kg) was 18 min and the half-life ([1]; PO, 5 mg/kg) was 90 min.

With `C[C@H](C(=O)N[C@H](CO)c1cccc(Cl)c1)N1Cc2ccc(-c3nc(NC4CCOCC4)ncc3Cl)c(F)c2C1=O` [Embodiment 34, (R)-2-(6-(5-Chloro-2-((tetrahydro-2H-pyran-4-yl)amino)pyrimidin-4-yl)-7-fluoro-1-oxoisoindolin-2-yl)-N—((S)-1-(3-chlorophenyl)-2-hydroxyethyl)propanamide] the F [1] was 19%, the AUC(0-inf) ([1]; IV, 1 mg/kg) was 0.83 µM·h and the AUC(0-t) ([1]; IV, 1 mg/kg) was 0.825 µM·h. For the same compound, the MRT inf ([1]; IV, 1 mg/kg) was 18 min, the clearance ([1]; IV, 1 mg/kg) was 34 mL/min/kg and the half-life ([1]; IV, 1 mg/kg) was 48 min. It also gave a Vd ([1]; IV, 1 mg/kg) of 0.7 L/kg, an AUC(0-inf) ([1]; PO, 5 mg/kg) of 0.806 µM·h and an AUC(0-t) ([1]; PO, 5 mg/kg) of 0.797 µM·h. It also gave a Cmax ([1]; PO, 5 mg/kg) of 791 nM, a Tmax ([1]; PO, 5 mg/kg) of 18 min and a half-life ([1]; PO, 5 mg/kg) of 90 min.

For `Cc1cccc([C@@H](CN)NC(=O)[C@@H](C)N2Cc3ccc(-c4nc(NC5CCOCC5)ncc4F)c(F)c3C2=O)c1` [Embodiment 36], the “enzyme inhibitory activity (in words)” value (ERK1/2 kinase) was “extremely strong enzyme inhibitory activity”, the IC50 (ERK1/2 kinase; numeric values) was less than 1 nM and the “cell proliferation inhibitory activity (in words)” value (Colo-205 cells) was “strong cell proliferation inhibitory activity”. For the same compound, the IC50 (Colo-205 cells; [3]) was less than 100 nM.

Compound `C[C@H](C(=O)N[C@H](CO)c1cccc(Cl)c1)N1Cc2ccc(-c3nc(NC4CCC(F)(F)CC4)ncc3F)c(F)c2C1=O` [Embodiment 38] has an IC50 (ERK1/2 kinase; class symbols) of less than 10 nM and an IC50 (Colo-205 cells; [3]) of 100 to 1000 nM.

“(R)-2-(3-(5-Chloro-2-((tetrahydro-2H-pyran-4-yl)amino)pyrimidin-4-yl)-5-oxo-5,7-dihydro-6H-pyrrolo[3,4-b]pyridin-6-yl)-N—((S)-2-hydroxy-1-(m-tolyl)ethyl)propanamide [Comparative compound 3, reference compound]” showed an IC50 (Colo-205 cells; class symbols) greater than 1000 nM.
